# Experimental data from ChEMBL document CHEMBL1201862, “PubChem BioAssay data set” (2004).
#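 A five-concentration, 48-hour dose response in 96-well plates underlies each endpoint, interpolated linearly between surrounding concentrations. Here, GI50 denotes the concentration required for 50% inhibition of growth.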 Activity calls are given as the source filed them. No stated cut-off is given here; in the data, active = GI50 up to about 1.1 µM and inactive = higher.
# What was measured:
# Assay in all cases: NCI tumour cell line growth inhibition, 48 h
# KM12 = test system: KM12
# TK-10 = test system: TK-10
# IGROV-1 = test system: IGROV-1
# SK-OV-3 = test system: SK-OV-3
# K562 = test system: K562
# LOX IMVI = test system: LOX IMVI
# 786-0 = test system: 786-0
# SR = test system: SR
# OVCAR-4 = test system: OVCAR-4
# SNB-75 = test system: SNB-75
# ACHN = test system: ACHN
# Malme-3M = test system: Malme-3M
# U-251 = test system: U-251
# NCI-H460 = test system: NCI-H460
# A498 = test system: A498
# OVCAR-8 = test system: OVCAR-8
# UACC-62 = test system: UACC-62
# NCI-H226 = test system: NCI-H226
# NCI-H23 = test system: NCI-H23
# SF-295 = test system: SF-295
Compound,GI50 (KM12),GI50 (TK-10),GI50 (IGROV-1),GI50 (SK-OV-3),GI50 (K562),GI50 (LOX IMVI),GI50 (786-0),GI50 (SR),GI50 (OVCAR-4),GI50 (SNB-75),GI50 (ACHN),GI50 (Malme-3M),GI50 (U-251),GI50 (NCI-H460),GI50 (A498),GI50 (OVCAR-8),GI50 (UACC-62),GI50 (NCI-H226),GI50 (NCI-H23),GI50 (SF-295)
NC(=O)c1cc([N+](=O)[O-])cc([N+](=O)[O-])c1 [NITROMIDE],> 100 µM (inactive),> 100 µM (inactive),> 100 µM (inactive),> 100 µM (inactive),> 100 µM (inactive),> 100 µM (inactive),> 100 µM (inactive),> 100 µM (inactive),> 100 µM (inactive),> 100 µM (inactive),> 100 µM (inactive),69.3 µM (inactive),> 100 µM (inactive),> 100 µM (inactive),> 100 µM (inactive),> 100 µM (inactive),96.8 µM (inactive),> 100 µM (inactive),> 100 µM (inactive),> 100 µM (inactive)
C=CC(C)CCC(C/C=C(\C)CCCC(C)C)C(=C)CCCC(C)C (stereo not drawn),> 100 µM (inactive),> 100 µM (inactive),> 100 µM (inactive),> 100 µM (inactive),> 100 µM (inactive),> 100 µM (inactive),> 100 µM (inactive),> 100 µM (inactive),> 100 µM (inactive),> 100 µM (inactive),> 100 µM (inactive),> 100 µM (inactive),> 100 µM (inactive),> 100 µM (inactive),> 100 µM (inactive),> 100 µM (inactive),> 100 µM (inactive),> 100 µM (inactive),> 100 µM (inactive),> 100 µM (inactive)
O=C1C2C3CC(C4C5C=CC(C5)C34)C2C2C3CC(C12)C1C2C=CC(C2)C31 (stereo not drawn),> 100 µM (inactive),> 100 µM (inactive),> 100 µM (inactive),> 100 µM (inactive),> 100 µM (inactive),28.8 µM (inactive),> 100 µM (inactive),> 100 µM (inactive),> 100 µM (inactive),> 100 µM (inactive),> 100 µM (inactive),> 100 µM (inactive),> 100 µM (inactive),26.8 µM (inactive),> 100 µM (inactive),> 100 µM (inactive),> 100 µM (inactive),> 100 µM (inactive),> 100 µM (inactive),> 100 µM (inactive)
Sc1ncnc2c1ncn2Cc1ccco1,> 100 µM (inactive),> 100 µM (inactive),> 100 µM (inactive),> 100 µM (inactive),> 100 µM (inactive),> 100 µM (inactive),> 100 µM (inactive),> 100 µM (inactive),> 100 µM (inactive),> 100 µM (inactive),> 100 µM (inactive),> 100 µM (inactive),> 100 µM (inactive),> 100 µM (inactive),> 100 µM (inactive),> 100 µM (inactive),> 100 µM (inactive),> 100 µM (inactive),> 100 µM (inactive),> 100 µM (inactive)
C=C1c2nc3ccccc3n2C=C(c2ccc(OC)cc2)N1c1ccccc1,2.62 µM (inactive),32.7 µM (inactive),5.85 µM (inactive),47.8 µM (inactive),2.62 µM (inactive),7.36 µM (inactive),6.11 µM (inactive),1.96 µM (inactive),17.9 µM (inactive),4.99 µM (inactive),39.7 µM (inactive),3.98 µM (inactive),5.31 µM (inactive),3.94 µM (inactive),31 µM (inactive),8.61 µM (inactive),3.67 µM (inactive),4.12 µM (inactive),11.7 µM (inactive),3.44 µM (inactive)
CC(=NNC(=S)Nc1ccccc1C)c1cccc(C(C)=NNC(=S)Nc2ccccc2C)n1,24 µM (inactive),23.7 µM (inactive),26.3 µM (inactive),> 100 µM (inactive),31.4 µM (inactive),6.9 µM (inactive),4.13 µM (inactive),0.262 µM (active),0.321 µM (active),2.36 µM (inactive),4.15 µM (inactive),15.5 µM (inactive),34.4 µM (inactive),15.3 µM (inactive),> 100 µM (inactive),17.4 µM (inactive),45.1 µM (inactive),9.73 µM (inactive),65.3 µM (inactive),8.93 µM (inactive)
Clc1cc2ns[s+]c2cc1Cl,41 µM (inactive),> 44.9 µM (inactive),98.6 µM (inactive),> 100 µM (inactive),4.55 µM (inactive),9.48 µM (inactive),> 75.9 µM (inactive),23.2 µM (inactive),> 100 µM (inactive),21 µM (inactive),12.4 µM (inactive),> 100 µM (inactive),> 100 µM (inactive),47.8 µM (inactive),> 100 µM (inactive),> 56.5 µM (inactive),5.33 µM (inactive),> 100 µM (inactive),73.8 µM (inactive),47.1 µM (inactive)
COc1c(CCl)cc(-c2cc(=O)c3ccccc3s2)cc1CCl,3.33 µM (inactive),26.9 µM (inactive),2.51 µM (inactive),27.3 µM (inactive),2.68 µM (inactive),1.86 µM (inactive),0.65 µM (active),3.18 µM (inactive),3.58 µM (inactive),6.78 µM (inactive),45.2 µM (inactive),1.5 µM (inactive),18.8 µM (inactive),22.9 µM (inactive),20.4 µM (inactive),15 µM (inactive),4.99 µM (inactive),30.1 µM (inactive),18.9 µM (inactive),11.9 µM (inactive)
COc1ccc(/C=C/C(=N/NC(=O)N/N=C(/C=C/c2ccc(OC)cc2)C(C)(C)CN2CCCCC2)C(C)(C)CN2CCCCC2)cc1,1.81 µM (inactive),2.01 µM (inactive),2.27 µM (inactive),1.98 µM (inactive),0.467 µM (active),1.37 µM (inactive),1.59 µM (inactive),0.234 µM (active),1.88 µM (inactive),1.37 µM (inactive),1.75 µM (inactive),1.92 µM (inactive),1.85 µM (inactive),1.65 µM (inactive),2.22 µM (inactive),1.8 µM (inactive),–,1.5 µM (inactive),3.03 µM (inactive),1.87 µM (inactive)
CC(C)[C@H](CCl)NC(=O)c1cccc(C(=O)N[C@H](CCl)C(C)C)n1 (stereo in doubt),> 100 µM (inactive),> 100 µM (inactive),> 100 µM (inactive),> 100 µM (inactive),> 100 µM (inactive),> 100 µM (inactive),> 100 µM (inactive),> 100 µM (inactive),> 100 µM (inactive),> 100 µM (inactive),> 100 µM (inactive),> 100 µM (inactive),> 100 µM (inactive),> 100 µM (inactive),78.7 µM (inactive),–,–,> 100 µM (inactive),> 100 µM (inactive),> 100 µM (inactive)
N#CC[C@@H](O)COc1ccccc1,> 100 µM (inactive),> 100 µM (inactive),–,> 100 µM (inactive),> 100 µM (inactive),> 100 µM (inactive),> 100 µM (inactive),> 100 µM (inactive),> 100 µM (inactive),> 100 µM (inactive),> 100 µM (inactive),> 100 µM (inactive),> 100 µM (inactive),> 100 µM (inactive),> 100 µM (inactive),> 100 µM (inactive),> 100 µM (inactive),> 100 µM (inactive),> 100 µM (inactive),> 100 µM (inactive)
COc1ccc(N2C(=O)C(Cl)C2c2cc3cc(Br)ccc3nc2Cl)cc1 (stereo not drawn),10.9 µM (inactive),7.52 µM (inactive),5.12 µM (inactive),16.6 µM (inactive),7.24 µM (inactive),0.838 µM (active),6.17 µM (inactive),1.33 µM (inactive),4.36 µM (inactive),20.5 µM (inactive),4.89 µM (inactive),4.94 µM (inactive),–,5.33 µM (inactive),16.6 µM (inactive),13.4 µM (inactive),4.37 µM (inactive),5.62 µM (inactive),5.98 µM (inactive),11.9 µM (inactive)
CC(CN1CCN(CC(C)Nc2ccnc3cc(Cl)ccc23)CC1)Nc1ccnc2cc(Cl)ccc12 (stereo not drawn),13.4 µM (inactive),23.9 µM (inactive),–,34 µM (inactive),2.84 µM (inactive),3.76 µM (inactive),17.8 µM (inactive),1.83 µM (inactive),20.2 µM (inactive),16.9 µM (inactive),28.8 µM (inactive),21.2 µM (inactive),18.5 µM (inactive),14.7 µM (inactive),18 µM (inactive),18.9 µM (inactive),17.9 µM (inactive),28.4 µM (inactive),18.6 µM (inactive),19.6 µM (inactive)
COc1ccc(/C=C/c2cc(O)cc(OC3OC(CO)C(O)C(O)C3O)c2)cc1O (stereo not drawn),18.9 µM (inactive),> 100 µM (inactive),66.2 µM (inactive),> 100 µM (inactive),45.1 µM (inactive),> 100 µM (inactive),> 100 µM (inactive),> 100 µM (inactive),> 100 µM (inactive),> 100 µM (inactive),14.8 µM (inactive),67.1 µM (inactive),> 100 µM (inactive),> 100 µM (inactive),> 100 µM (inactive),> 100 µM (inactive),19.4 µM (inactive),> 100 µM (inactive),–,51.8 µM (inactive)
